Assay results from PubChem BioAssay AID248 (DTP/NCI, 2004).
Several values for one entry are separate records, joined by “and”; a condition that tells them apart may be missing. Equal values may be shown once. Inconclusive results and toxic doses are left out. No stated cut-off is given here; in the data, active means T/C of 150% or more; inactive means T/C below 125%.

Tested on: L1210 leukemia ip in BDF1 mice, survival T/C
Experiment: NCI In Vivo Anticancer Drug Screen. Data for tumor model L1210 Leukemia (intraperitoneal) in B6D2F1 (BDF1) mice
Settings: endpoint: mean survival time, higher = longer survival
How it was run: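 Transplantable tumor model; survival measured in treated vs vehicle control mice. Value = treated/control.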

[1] = dose: 100.0 mg/kg/injection, schedule: Q01DX001 (ip), vehicle: carboxymethylcellulose (CMC)
[2] = dose: 200.0 mg/kg/injection, schedule: Q01DX001 (ip), vehicle: carboxymethylcellulose (CMC)
[3] = dose: 400.0 mg/kg/injection, schedule: Q01DX001 (ip), vehicle: carboxymethylcellulose (CMC)
[4] = dose: 100.0 mg/kg/injection, schedule: Q01DX001 (ip), vehicle: saline
[5] = dose: 200.0 mg/kg/injection, schedule: Q01DX001 (ip), vehicle: saline
[6] = dose: 400.0 mg/kg/injection, schedule: Q01DX001 (ip), vehicle: saline
[7] = dose: 50.0 mg/kg/injection, schedule: Q04DX003 (ip), vehicle: saline with Tween-80
[8] = dose: 100.0 mg/kg/injection, schedule: Q04DX003 (ip), vehicle: saline with Tween-80
[9] = dose: 200.0 mg/kg/injection, schedule: Q04DX003 (ip), vehicle: saline with Tween-80
[10] = dose: 400.0 mg/kg/injection, schedule: Q04DX003 (ip), vehicle: saline with Tween-80
[11] = dose: 5.0 mg/kg/injection, schedule: Q01DX001 (ip), vehicle: saline
[12] = dose: 10.0 mg/kg/injection, schedule: Q01DX001 (ip), vehicle: saline
[13] = dose: 20.0 mg/kg/injection, schedule: Q01DX001 (ip), vehicle: saline
[14] = dose: 40.0 mg/kg/injection, schedule: Q01DX001 (ip), vehicle: saline
[15] = dose: 50.0 mg/kg/injection, schedule: Q01DX009 (ip), vehicle: Klucel (hydroxypropylcellulose) (HPC)
[16] = dose: 200.0 mg/kg/injection, schedule: Q01DX009 (ip), vehicle: Klucel (hydroxypropylcellulose) (HPC)
[17] = dose: 50.0 mg/kg/injection, schedule: Q01DX009 (ip), vehicle: saline with Tween-80
[18] = dose: 100.0 mg/kg/injection, schedule: Q01DX009 (ip), vehicle: saline with Tween-80
[19] = dose: 200.0 mg/kg/injection, schedule: Q01DX009 (ip), vehicle: saline with Tween-80
[20] = dose: 100.0 mg/kg/injection, schedule: Q01DX009 (ip), vehicle: Klucel (hydroxypropylcellulose) (HPC)

Measured: T/C

CC1(C)OC2C(=O)C3COC(O3)C2O1 (configuration not stated)
inactive: [1] 106 % of control | [2] 106 % of control | [3] 103 % of control

O=C(N/N=C/c1cccnc1)C(O)C(O)C(O)C(O)CO (configuration not stated)
inactive: [4] 100 % of control | [5] 103 % of control | [6] 93 % of control

CC(C)[O][In]([O]C(C)C)[O]C(C)C
inactive: [7] 96 % of control | [8] 99 % of control | [9] 91 % of control | [10] 96 % of control

NC(=O)OCC(CO)(c1ccccc1)c1ccccc1
inactive: [11] 98 % of control | [12] 93 % of control | [13] 102 % of control | [14] 102 % of control | dose: 80.0 mg/kg/injection, schedule: Q01DX001 (ip), vehicle: saline 98 % of control

O=[N+]([O-])c1ccc(Oc2ccc(Cl)cc2Cl)c([N+](=O)[O-])c1
inactive: dose: 100.0 mg/kg/injection, schedule: Q01DX001 (ip), vehicle: saline with Tween-80 103 % of control | [8] 105 % of control | dose: 200.0 mg/kg/injection, schedule: Q01DX001 (ip), vehicle: saline with Tween-80 94 % of control | [9] 102 % of control | dose: 222.0 mg/kg/injection, schedule: Q01DX Z (ip), vehicle: methylcellulose (MC) 100 % of control | dose: 333.0 mg/kg/injection, schedule: Q01DX Z (ip), vehicle: methylcellulose (MC) 92 % of control | dose: 400.0 mg/kg/injection, schedule: Q01DX001 (ip), vehicle: saline with Tween-80 97 % of control | [10] 99 % of control | dose: 500.0 mg/kg/injection, schedule: Q01DX Z (ip), vehicle: methylcellulose (MC) 95 % of control

C=CC[N+](C)(C)C
inactive: dose: 75.0 mg/kg/injection, schedule: Q01DX001 (ip), vehicle: saline 101 % of control

O=C1NC2(CCCCCC2)C(=O)N1CN1CCOCC1
inactive: dose: 100.0 mg/kg/injection, schedule: Q01DX001 (ip), vehicle: Klucel (hydroxypropylcellulose) (HPC) 98 % of control | dose: 200.0 mg/kg/injection, schedule: Q01DX001 (ip), vehicle: Klucel (hydroxypropylcellulose) (HPC) 101 % of control | dose: 400.0 mg/kg/injection, schedule: Q01DX001 (ip), vehicle: Klucel (hydroxypropylcellulose) (HPC) 104 % of control

Cc1ccc(CCC(=O)O)c2ccccc12
inactive: dose: 100.0 mg/kg/injection, schedule: Q04DX002 (ip), vehicle: Klucel (hydroxypropylcellulose) (HPC) 93 % of control | dose: 200.0 mg/kg/injection, schedule: Q04DX002 (ip), vehicle: Klucel (hydroxypropylcellulose) (HPC) 87 % of control

c1ccc(-c2c3ccccc3c(-c3ccccc3)c3c2ccc2ccccc23)cc1
inactive: [15] 91 % of control | [16] 91 % of control

BrC1C2CCC(C2)C1Br (configuration not stated)
inactive: [4] 102 % of control | [5] 100 % of control | [6] 100 % of control

CN(C)N=Nc1c(Br)cc(Br)cc1Br
inactive: [17] 87 % of control | [18] 102 % of control | [19] 105 % of control

O=C1c2cccc3cccc(c23)C(=O)N1NCCO
inactive: [20] 93 % of control | [16] 89 % of control

CC(=O)c1ccc(CCC(=O)O)cc1
inactive: dose: 100.0 mg/kg/injection, schedule: Q04DX002 (ip), vehicle: saline with Tween-80 94 % of control | dose: 200.0 mg/kg/injection, schedule: Q04DX002 (ip), vehicle: saline with Tween-80 98 % of control | dose: 400.0 mg/kg/injection, schedule: Q04DX002 (ip), vehicle: saline with Tween-80 90 % of control

CSc1nn(C)c2cc(C)c3ccccc3[n+]12
inactive: [11] 108 % of control | [12] 106 % of control | [13] 103 % of control | [14] 100 % of control

CCCCCCCCCCCn1cnc2c(N)ncnc21
inactive: dose: 12.5 mg/kg/injection, schedule: Q01DX005 (ip), vehicle: other 93 % of control | dose: 25.0 mg/kg/injection, schedule: Q01DX005 (ip), vehicle: other 103 % of control | dose: 50.0 mg/kg/injection, schedule: Q01DX005 (ip), vehicle: other 92 % of control | dose: 100.0 mg/kg/injection, schedule: Q01DX005 (ip), vehicle: other 103 % of control | dose: 200.0 mg/kg/injection, schedule: Q01DX005 (ip), vehicle: other 104 % of control

CCOC(=O)C(=CN(C(C)C)C(C)C)C(=O)OCC
inactive: dose: 50.0 mg/kg/injection, schedule: Q01DX009 (ip), vehicle: saline 100 % of control | dose: 100.0 mg/kg/injection, schedule: Q01DX009 (ip), vehicle: saline 98 % of control | [8] 94 % of control | dose: 200.0 mg/kg/injection, schedule: Q01DX009 (ip), vehicle: saline 101 % of control | [9] 100 % of control

CCN(CCN)c1cccc(C)c1
inactive: dose: 100.0 mg/kg/injection, schedule: Q04DX003 (ip), vehicle: saline sonified 92 % of control

O=C(/C=C/c1ccccc1O)c1ccccc1
inactive: [20] 98 % of control | [18] 110 % of control | dose: 100.0 mg/kg/injection, schedule: Q04DX003 (ip), vehicle: Klucel (hydroxypropylcellulose) (HPC) 113 % of control | [8] 94 % of control | [16] 100 % of control | [19] 101 % of control | dose: 200.0 mg/kg/injection, schedule: Q04DX003 (ip), vehicle: Klucel (hydroxypropylcellulose) (HPC) 113 % of control | [9] 102 % of control | dose: 400.0 mg/kg/injection, schedule: Q01DX009 (ip), vehicle: Klucel (hydroxypropylcellulose) (HPC) 90 % of control | dose: 400.0 mg/kg/injection, schedule: Q01DX009 (ip), vehicle: saline with Tween-80 102 % of control | dose: 400.0 mg/kg/injection, schedule: Q04DX003 (ip), vehicle: Klucel (hydroxypropylcellulose) (HPC) 103 % of control | [10] 96 % of control

Cc1nn(C)c(N)c1N=O
inactive: [15] 102 % of control | [20] 98 % of control | [16] 102 % of control

COc1cc(N=Nc2ccccc2OC)ccc1N
inactive: dose: 50.0 mg/kg/injection, schedule: Q01DX001 (ip), vehicle: carboxymethylcellulose (CMC) 97 % of control | [1] 109 % of control | [2] 106 % of control | [3] 101 % of control

CNC(=O)NC1CC(OC2CC(O)(C(C)=O)Cc3c(O)c4c(c(O)c32)C(=O)c2c(OC)cccc2C4=O)OC(C)C1O (configuration not stated)
inactive: dose: 2.0 mg/kg/injection, schedule: Q04DX003 (ip), vehicle: water 103 % of control | dose: 3.12 mg/kg/injection, schedule: Q01DX009 (ip), vehicle: saline with Tween-80 108 % of control | dose: 4.0 mg/kg/injection, schedule: Q04DX003 (ip), vehicle: water 98 % of control | dose: 6.25 mg/kg/injection, schedule: Q01DX009 (ip), vehicle: saline with Tween-80 97 % of control | dose: 8.0 mg/kg/injection, schedule: Q04DX003 (ip), vehicle: water 107 % of control | dose: 12.5 mg/kg/injection, schedule: Q01DX009 (ip), vehicle: saline with Tween-80 103 % of control | dose: 12.5 mg/kg/injection, schedule: Q04DX003 (ip), vehicle: saline with Tween-80 100 % of control | dose: 16.0 mg/kg/injection, schedule: Q04DX003 (ip), vehicle: water 95 % of control and 103 % of control | dose: 25.0 mg/kg/injection, schedule: Q01DX009 (ip), vehicle: saline with Tween-80 112 % of control | dose: 25.0 mg/kg/injection, schedule: Q04DX003 (ip), vehicle: saline with Tween-80 100 % of control | dose: 32.0 mg/kg/injection, schedule: Q04DX003 (ip), vehicle: water 100 % of control | [17] 111 % of control | [7] 100 % of control | dose: 64.0 mg/kg/injection, schedule: Q04DX003 (ip), vehicle: water 104 % of control | [8] 100 % of control | dose: 125.0 micrograms/kg/injection, schedule: Q04DX003 (ip), vehicle: water 104 % of control | dose: 250.0 micrograms/kg/injection, schedule: Q04DX003 (ip), vehicle: water 104 % of control | dose: 500.0 micrograms/kg/injection, schedule: Q04DX003 (ip), vehicle: water 105 % of control | dose: 1000.0 micrograms/kg/injection, schedule: Q04DX003 (ip), vehicle: water 104 % of control | dose: 2000.0 micrograms/kg/injection, schedule: Q04DX003 (ip), vehicle: water 101 % of control
